Experimental data published in patent US12404241B2 (Celgene Corporation, priority 2018, dated 2025).

Molecular target: T1, AR (Homo sapiens, UniProt P10275)
T1 construct: endogenous in cells; host or cells: VCaP cells
T1 sequence (P10275 1-920): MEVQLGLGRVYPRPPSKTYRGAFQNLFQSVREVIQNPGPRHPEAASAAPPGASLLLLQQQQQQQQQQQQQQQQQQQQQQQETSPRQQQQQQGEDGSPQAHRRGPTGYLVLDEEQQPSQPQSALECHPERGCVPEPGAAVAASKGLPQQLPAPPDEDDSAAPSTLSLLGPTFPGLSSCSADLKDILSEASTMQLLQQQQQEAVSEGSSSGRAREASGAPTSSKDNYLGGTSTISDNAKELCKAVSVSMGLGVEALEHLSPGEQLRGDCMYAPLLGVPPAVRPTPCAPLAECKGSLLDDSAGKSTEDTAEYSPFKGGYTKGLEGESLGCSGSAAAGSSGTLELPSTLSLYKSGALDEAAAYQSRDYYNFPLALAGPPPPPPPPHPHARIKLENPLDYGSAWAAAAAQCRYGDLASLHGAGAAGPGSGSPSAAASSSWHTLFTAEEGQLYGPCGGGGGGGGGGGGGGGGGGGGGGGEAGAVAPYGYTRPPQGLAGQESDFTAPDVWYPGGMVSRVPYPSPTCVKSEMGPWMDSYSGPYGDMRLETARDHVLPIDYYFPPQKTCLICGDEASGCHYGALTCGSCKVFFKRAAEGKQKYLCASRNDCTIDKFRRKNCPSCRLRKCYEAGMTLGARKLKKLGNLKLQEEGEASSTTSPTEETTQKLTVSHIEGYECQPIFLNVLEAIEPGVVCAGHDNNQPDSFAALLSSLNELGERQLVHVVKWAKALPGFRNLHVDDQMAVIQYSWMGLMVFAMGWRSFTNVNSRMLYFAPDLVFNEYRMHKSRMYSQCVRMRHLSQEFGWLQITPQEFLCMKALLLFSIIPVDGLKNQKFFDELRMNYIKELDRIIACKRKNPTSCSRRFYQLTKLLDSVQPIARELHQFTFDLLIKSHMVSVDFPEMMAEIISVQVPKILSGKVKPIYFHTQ
Experiment: VCAP AR Degradation Assay
Type: cell-based
Details: for Y (AR degradation efficiency, % of DMSO control): class symbols *; for DC50: class symbols A-C, read-out: DC50
Procedure, shortened: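 24 h, 37 °C, VCaP (DMEM/8% FBS), 10-pt 1:3 dilutions from 5 μM final top, 0.1% DMSO ctrl. Lysis on ice/4 °C 1 h; total AR by sandwich ELISA, normalized to DMSO. 4PL fit → DC50, EC50, Y (min AR level).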

Row | SMILES | Y (AR degradation efficiency, % of DMSO control) | DC50
1 | CC(C)c1cc(N2C(=S)N(c3ccc(C#N)c(C(F)(F)F)c3)C(=O)C2(C)C)cnc1OCCN1C[C@@H](C)N(CC(=O)Nc2cc(C#N)cc(NC3CCC(=O)NC3=O)c2)C[C@H]1C (stereo partly drawn) [Example 232, 2-((2R,5R)-4-(2-(5-(3-(4-cyano-3-(trifluoromethyl)phenyl)-5,5-dimethyl-4-oxo-2-thioxoimidazolidin-1-yl)-3-isopropylpyridin-2-yloxy)ethyl)-2,5-dimethylpiperazin-1-yl)-N-(3-cyano-5-(2,6-dioxopiperidin-3-ylamino)phenyl)acetamide] | * (0<Y<=25%) | 100 to 500 nM
2 | CC1(C)C(=O)N(c2cnc(C#N)c(C(F)(F)F)c2)C(=S)N1c1ccc(OCCN2CCN(CC(=O)Nc3cccc(NC4CCC(=O)NC4=O)c3)[C@H](C(F)(F)F)C2)c(C2CC2)c1 (stereo partly drawn) [Example 233, 2-((S)-4-(2-(4-(3-(6-cyano-5-(trifluoromethyl)pyridin-3-yl)-5,5-dimethyl-4-oxo-2-thioxoimidazolidin-1-yl)-2-cyclopropylphenoxy)ethyl)-2-(trifluoromethyl)piperazin-1-yl)-N-(3-(2,6-dioxopiperidin-3-ylamino)phenyl)acetamide] | * (0<Y<=25%) | < 100 nM
3 | C[C@@H]1CN(CC(=O)Nc2cccc(NC3CCC(=O)NC3=O)c2)[C@H](C)CN1CCOc1ccc(N2C(=S)N(c3cnc(C#N)c(C(F)(F)F)c3)C(=O)C2(C)C)cc1C1CC1 (stereo partly drawn) [Example 234, 2-((2R,5R)-4-(2-(4-(3-(6-cyano-5-(trifluoromethyl)pyridin-3-yl)-5,5-dimethyl-4-oxo-2-thioxoimidazolidin-1-yl)-2-cyclopropylphenoxy)ethyl)-2,5-dimethylpiperazin-1-yl)-N-(3-(2,6-dioxopiperidin-3-ylamino)phenyl)acetamide] | * (0<Y<=25%) | < 100 nM
4 | C[C@@H]1CN(CCOc2ccc(N3C(=S)N(c4cnc(C#N)c(C(F)(F)F)c4)C(=O)C3(C)C)cc2C2CC2)C[C@H](C)N1CC(=O)Nc1cccc(NC2CCC(=O)NC2=O)c1 (stereo partly drawn) [Example 235, 2-((2S,6R)-4-(2-(4-(3-(6-cyano-5-(trifluoromethyl)pyridin-3-yl)-5,5-dimethyl-4-oxo-2-thioxoimidazolidin-1-yl)-2-cyclopropylphenoxy)ethyl)-2,6-dimethylpiperazin-1-yl)-N-(3-(2,6-dioxopiperidin-3-ylamino)phenyl)acetamide] | * (0<Y<=25%) | < 100 nM
5 | CC1(C)C(=O)N(c2ccc(C#N)c(C(F)(F)F)c2)C(=S)N1c1ccc(OCCN2CC3CCC(C2)N3CC(=O)Nc2cccc(NC3CCC(=O)NC3=O)c2)c(C2CC2)c1 (stereo not drawn) [Example 238, 2-(3-(2-(4-(3-(4-cyano-3-(trifluoromethyl)phenyl)-5,5-dimethyl-4-oxo-2-thioxoimidazolidin-1-yl)-2-cyclopropylphenoxy)ethyl)-3,8-diazabicyclo[3.2.1]octan-8-yl)-N-(3-(2,6-dioxopiperidin-3-ylamino)phenyl)acetamide] | * (0<Y<=25%) | 500 to 1000 nM
6 | C[C@@H]1CN(CC(=O)Nc2cc(C#N)cc(NC3CCC(=O)NC3=O)c2)[C@H](C)CN1CCOc1ccc(N2C(=S)N(c3cnc(C#N)c(C(F)(F)F)c3)C(=O)C2(C)C)cc1C(C)(F)F (stereo partly drawn) [Example 243, N-(3-cyano-5-(2,6-dioxopiperidin-3-ylamino)phenyl)-2-((2R,5R)-4-(2-(4-(3-(6-cyano-5-(trifluoromethyl)pyridin-3-yl)-5,5-dimethyl-4-oxo-2-thioxoimidazolidin-1-yl)-2-(1,1-difluoroethyl)phenoxy)ethyl)-2,5-dimethylpiperazin-1-yl)acetamide] | * (0<Y<=25%) | < 100 nM
7 | C[C@@H]1CN(CC(=O)Nc2cccc(NC3CCC(=O)NC3=O)c2)[C@H](C)CN1CCOc1ccc(N2C(=S)N(c3cnc(C#N)c(C(F)(F)F)c3)C(=O)C2(C)C)cc1C(C)(F)F (stereo partly drawn) [Example 244, 2-((2R,5R)-4-(2-(4-(3-(6-cyano-5-(trifluoromethyl)pyridin-3-yl)-5,5-dimethyl-4-oxo-2-thioxoimidazolidin-1-yl)-2-(1,1-difluoroethyl)phenoxy)ethyl)-2,5-dimethylpiperazin-1-yl)-N-(3-(2,6-dioxopiperidin-3-ylamino)phenyl)acetamide] | * (0<Y<=25%) | < 100 nM
8 | CC1(C)C(=O)N(c2ccc(C#N)c(C(F)(F)F)c2)C(=S)N1c1ccc(OCCN2CCN(CC(=O)Nc3cccc(NC4CCC(=O)NC4=O)c3)[C@H](C(F)(F)F)C2)c(C2CC2)c1 (stereo partly drawn) [Example 245, 2-((S)-4-(2-(4-(3-(4-cyano-3-(trifluoromethyl)phenyl)-5,5-dimethyl-4-oxo-2-thioxoimidazolidin-1-yl)-2-cyclopropylphenoxy)ethyl)-2-(trifluoromethyl)piperazin-1-yl)-N-(3-(2,6-dioxopiperidin-3-ylamino)phenyl)acetamide] | * (0<Y<=25%) | < 100 nM
9 | CCc1cc(N2C(=S)N(c3ccc(C#N)c(C(F)(F)F)c3)C(=O)C2(C)C)ccc1OCCN1CCN(CC(=O)Nc2cccc(NC3CCC(=O)NC3=O)c2)[C@H](C(F)(F)F)C1 (stereo partly drawn) [Example 246, 2-((S)-4-(2-(4-(3-(4-cyano-3-(trifluoromethyl)phenyl)-5,5-dimethyl-4-oxo-2-thioxoimidazolidin-1-yl)-2-ethylphenoxy)ethyl)-2-(trifluoromethyl)piperazin-1-yl)-N-(3-(2,6-dioxopiperidin-3-ylamino)phenyl)acetamide] | * (0<Y<=25%) | < 100 nM
10 | CCc1cc(N2C(=S)N(c3ccc(C#N)c(C(F)(F)F)c3)C(=O)C2(C)C)c(F)cc1OCCN1C[C@@H](C)N(CC(=O)Nc2cccc(NC3CCC(=O)NC3=O)c2)[C@@H](C)C1 (stereo partly drawn) [Example 247, 2-((2S,6R)-4-(2-(4-(3-(4-cyano-3-(trifluoromethyl)phenyl)-5,5-dimethyl-4-oxo-2-thioxoimidazolidin-1-yl)-2-ethyl-5-fluorophenoxy)ethyl)-2,6-dimethylpiperazin-1-yl)-N-(3-(2,6-dioxopiperidin-3-ylamino)phenyl)acetamide] | * (0<Y<=25%) | < 100 nM
11 | CCc1cc(N2C(=S)N(c3ccc(C#N)c(C(F)(F)F)c3)C(=O)C2(C)C)cc(F)c1OCCN1C[C@@H](C)N(CC(=O)Nc2cccc(NC3CCC(=O)NC3=O)c2)[C@@H](C)C1 (stereo partly drawn) [Example 248, 2-((2S,6R)-4-(2-(4-(3-(4-cyano-3-(trifluoromethyl)phenyl)-5,5-dimethyl-4-oxo-2-thioxoimidazolidin-1-yl)-2-ethyl-6-fluorophenoxy)ethyl)-2,6-dimethylpiperazin-1-yl)-N-(3-(2,6-dioxopiperidin-3-ylamino)phenyl)acetamide] | * (0<Y<=25%) | < 100 nM
12 | CCc1cc(N2C(=S)N(c3ccc(C#N)c(C(F)(F)F)c3)C(=O)C2(C)C)cc(C)c1OCCN1C[C@@H](C)N(CC(=O)Nc2cccc(NC3CCC(=O)NC3=O)c2)[C@@H](C)C1 (stereo partly drawn) [Example 249, 2-((2R,6S)-4-(2-(4-(3-(4-cyano-3-(trifluoromethyl)phenyl)-5,5-dimethyl-4-oxo-2-thioxoimidazolidin-1-yl)-2-ethyl-6-methylphenoxy)ethyl)-2,6-dimethylpiperazin-1-yl)-N-(3-(2,6-dioxopiperidin-3-ylamino)phenyl)acetamide] | *** (35%<Y<50%) | 100 to 500 nM
